# From patent US20170051149A1, “AZOARYLS AS REVERSIBLY MODULATABLE TUBULIN INHIBITORS” (ECOLE NORMALE SUPERIEURE DE LYON, priority 2014, published 2017)
# Key:
# Format in all cases: cell-based
# HeLa cells = test: MTT assay; conditions: 48 h
# From the text: The cytotoxic properties of I.1 were subsequently confirmed with another method, using the quantification of mitochondrial dehydrogenase activity of cells as determined by the level of 3-(4.5-dimethylthiazol-2-yl)-2.5-diphenyl tetrazolium bromide (MTT) reduction to its purple formazan, according to standard protocol^[30]. […] Cells were kept in the dark, or exposed to a pulsed toxic regime of 390 nm only, or exposed to a strong rescue protocol with pulses of 390 nm then 505 nm light. Pulses of light were applied every 30 s; 390 nm light pulses lasted 150 ms every 30 s, while the 505 nm light pulses were applied for 500 ms; in the strong rescue regime, the 505 nm pulse was synchronised so that it began immediately after the 390 nm pulse ended.
# Cellular viability was measured 48 h later, namely, cells were incubated with MTT for three hours and after dissolution of the formazan crystals with DMSO, absorbance at 550 nm was measured using a FLUOstar Omega microplate reader. Results are shown in Table 5 below and are expressed as a fold growth relative to the control growth of the cells treated only with a co-solvent (0.5% MeCN) and represent mean and standard deviation of quadruplicates of the optical density values, which are proportional to the cell number.
# HEK-293 = test: cell cycle analysis by PI flow cytometry; conditions: 30 h
# Experimental: (§1) The effect of compound I.1 on cell cycle progression was assessed by flow cytometry. Briefly, following the application of compound I.1 and exposure to the indicated light regime, cells were harvested on ice and incubated in a hypotonic buffer [0.1% sodium citrate, 0.1% Triton X-100 and 50 μg/mL propidium iodide (PI)] for 30 min at 4° C. Following the PI staining cells were analysed by flow cytometry using FACSCalibur flow cytometer (Becton Dickinson, Heidelberg, Germany) and Cell Quest Pro Software (Becton Dickinson). Subsequently the cell cycle analysis was performed using the FlowJo software (Tree Star Inc., Ashland, Oreg., USA).
# HeLa = test: cell cycle analysis by PI flow cytometry; conditions: 30 h
# Experimental: as §1
# HepG2 cells = test: cell cycle analysis by PI flow cytometry; conditions: 48 h
# Experimental: as §1
# MDA-MB-231 cells = test: cell cycle analysis by PI flow cytometry
# Experimental: as §1
# Jurkat cells = test: membrane permeability, PI uptake in nonpermeabilized cells; conditions: 48 h
# Experimental: Membrane integrity was assessed as a marker of cellular viability, via examining the uptake of propidium iodide (PI) in nonpermeabilized cells according to a standard protocol. Namely, cells were harvested and incubated with 5 μg/mL PI in PBS containing 2% FCS (foetal calf serum), and immediately analysed by flow cytometry using a FACSCalibur flow cytometer.
# [1] = 200 nM, 390 nm (1 s every 15 min)
# [2] = 600 nM, 390 nm (1 s every 15 min)
# [3] = 1.5 μM, 390 nm (1 s every 15 min)
# [4] = 5 μM, 390 nm (1 s every 15 min)
# [5] = 10 nM, 390 nm (150 ms every 30 s), 48 h
# [6] = 20 nM, 390 nm (150 ms every 30 s), 48 h
# [7] = 50 nM, 390 nm (150 ms every 30 s), 48 h
# [8] = 100 nM, 390 nm (150 ms every 30 s), 48 h
# [9] = 400 nM, 390 nm (150 ms every 30 s), 48 h
# [10] = 600 nM, 390 nm (150 ms every 30 s), 48 h
# [11] = 800 nM, 390 nm (150 ms every 30 s), 48 h
# [12] = 1 μM, 390 nm (150 ms every 30 s), 48 h
# [13] = 2 μM, 390 nm (150 ms every 30 s), 48 h
# [14] = 5 μM, 390 nm (150 ms every 30 s), 48 h
smiles,measurement,setting,value
"COc1ccc(N=Nc2cc(OC)c(OC)c(OC)c2)cc1O [I.1, 2-methoxy-5-((3,4,5-trimethoxyphenyl)diazenyl)phenol]",mean fold growth,"HeLa cells; 10 nM, 390 nm (150 ms every 30 s)",0.95 fold
same,mean fold growth,"HeLa cells; 10 nM, Dark",0.93 fold
same,mean fold growth,"HeLa cells; 20 nM, 390 nm (150 ms every 30 s)",0.96 fold
same,mean fold growth,"HeLa cells; 20 nM, Dark",1.02 fold
same,mean fold growth,"HeLa cells; 50 nM, 390 nm (150 ms every 30 s)",0.96 fold
same,mean fold growth,"HeLa cells; 50 nM, Dark",1.01 fold
same,mean fold growth,"HeLa cells; 100 nM, 390 nm (150 ms every 30 s)",0.93 fold
same,mean fold growth,"HeLa cells; 100 nM, dark",1.01 fold
same,mean fold growth,"HeLa cells; 400 nM, 390 nm (150 ms every 30 s)",0.28 fold
same,mean fold growth,"HeLa cells; 400 nM, dark",1.00 fold
same,mean fold growth,"HeLa cells; 400 nM, rescue: 390 nm (150 ms) then 505 nm (500 ms) every 30 s",0.46 fold
same,mean fold growth,"HeLa cells; 600 nM, 390 nm (150 ms every 30 s)",0.21 fold
same,mean fold growth,"HeLa cells; 600 nM, dark",1.05 fold
same,mean fold growth,"HeLa cells; 800 nM, 390 nm (150 ms every 30 s)",0.17 fold
same,mean fold growth,"HeLa cells; 800 nM, Dark",0.98 fold
same,mean fold growth,"HeLa cells; 1 μM, 390 nm (150 ms every 30 s)",0.18 fold
same,mean fold growth,"HeLa cells; 1 μM, dark",0.93 fold
same,mean fold growth,"HeLa cells; 2 μM, 390 nm (150 ms every 30 s)",0.21 fold
same,mean fold growth,"HeLa cells; 2 μM, Dark",0.98 fold
same,toxicity,"HeLa cells; in the dark, 10 nM-2 μM",no toxicity
same,concentration inducing severe cytotoxicity,HeLa cells; upon exposure to the light (390 nm),≥ 0.4 µM
same,mean % G2/M phase,HEK-293; [1],19.0%
same,mean % G2/M phase,"HEK-293; 200 nM, dark",20.2%
same,mean % G2/M phase,HEK-293; [2],19.4%
same,mean % G2/M phase,"HEK-293; 600 nM, dark",21.2%
same,mean % G2/M phase,HEK-293; [3],65.3%
same,mean % G2/M phase,"HEK-293; 1.5 μM, dark",21.1%
same,mean % G2/M phase,HEK-293; [4],71.5%
same,mean % G2/M phase,"HEK-293; 5 μM, dark",24.6%
same,mean % G2/M phase,HeLa; [1],26.2%
same,mean % G2/M phase,"HeLa; 200 nM, dark",23.5%
same,mean % G2/M phase,HeLa; [2],33.7%
same,mean % G2/M phase,"HeLa; 600 nM, dark",24.8%
same,mean % G2/M phase,HeLa; [3],59.9%
same,mean % G2/M phase,"HeLa; 1.5 μM, dark",27.1%
same,mean % G2/M phase,HeLa; [4],68.7%
same,mean % G2/M phase,"HeLa; 5 μM, dark",28.4%
same,mean % G2/M phase,"HepG2 cells; 100 nM, 390 nm (250 ms every 15 s)",7.8%
same,mean % G2/M phase,"HepG2 cells; 100 nM, dark",10.0%
same,mean % G2/M phase,"HepG2 cells; 600 nM, 390 nm (250 ms every 15 s)",9.4%
same,mean % G2/M phase,"HepG2 cells; 600 nM, dark",8.6%
same,mean % G2/M phase,"HepG2 cells; 1 μM, 390 nm (250 ms every 15 s)",10.7%
same,mean % G2/M phase,"HepG2 cells; 1 μM, dark",10.1%
same,mean % G2/M phase,"HepG2 cells; 3 μM, 390 nm (250 ms every 15 s)",9.3%
same,mean % G2/M phase,"HepG2 cells; 3 μM, dark",11.2%
same,mean % G2/M phase,"HepG2 cells; 10 μM, 390 nm (250 ms every 15 s)",42.3%
same,mean % G2/M phase,"HepG2 cells; 10 μM, dark",11.7%
same,% G1,MDA-MB-231 cells; [5],74.6%
same,% G2,MDA-MB-231 cells; [5],1.9%
same,% S,MDA-MB-231 cells; [5],17.1%
same,mean % G2/M phase,MDA-MB-231 cells; [5],1.9%
same,mean % G2/M phase,"MDA-MB-231 cells; 10 nM, 390 nm + 515 nm (rescue), 48 h",0.8%
same,mean % G2/M phase,"MDA-MB-231 cells; 10 nM, 515 nm (500 ms every 30 s), 48 h",1.1%
same,% G1,MDA-MB-231 cells; [6],79.5%
same,% G2,MDA-MB-231 cells; [6],2.5%
same,% S,MDA-MB-231 cells; [6],18.0%
same,% G1,MDA-MB-231 cells; [7],77.1%
same,% G2,MDA-MB-231 cells; [7],1.8%
same,% S,MDA-MB-231 cells; [7],18.0%
same,% G1,MDA-MB-231 cells; [8],76.6%
same,% G2,MDA-MB-231 cells; [8],2.0%
same,% S,MDA-MB-231 cells; [8],18.5%
same,mean % G2/M phase,MDA-MB-231 cells; [8],2.0%
same,mean % G2/M phase,"MDA-MB-231 cells; 100 nM, 390 nm + 515 nm (rescue), 48 h",0.9%
same,mean % G2/M phase,"MDA-MB-231 cells; 100 nM, 515 nm (500 ms every 30 s), 48 h",1.2%
same,mean % G2/M phase,"MDA-MB-231 cells; 200 nM, 390 nm (1 s every 15 min), 30 h",8.2%
same,mean % G2/M phase,"MDA-MB-231 cells; 200 nM, dark, 30 h",14.3%
same,% G1,MDA-MB-231 cells; [9],53.1%
same,% G2,MDA-MB-231 cells; [9],15.1%
same,% S,MDA-MB-231 cells; [9],27.6%
same,mean % G2/M phase,MDA-MB-231 cells; [9],15.1%
same,mean % G2/M phase,"MDA-MB-231 cells; 400 nM, 390 nm + 515 nm (rescue), 48 h",6.4%
same,mean % G2/M phase,"MDA-MB-231 cells; 400 nM, 515 nm (500 ms every 30 s), 48 h",8.2%
same,mean % G2/M phase,"MDA-MB-231 cells; 600 nM, 390 nm (1 s every 15 min), 30 h",16.3%
same,% G1,MDA-MB-231 cells; [10],18.0%
same,% G2,MDA-MB-231 cells; [10],42.6%
same,% S,MDA-MB-231 cells; [10],31.0%
same,mean % G2/M phase,MDA-MB-231 cells; [10],42.6%
same,mean % G2/M phase,"MDA-MB-231 cells; 600 nM, 390 nm + 515 nm (rescue), 48 h",17.3%
same,mean % G2/M phase,"MDA-MB-231 cells; 600 nM, 515 nm (500 ms every 30 s), 48 h",21.7%
same,mean % G2/M phase,"MDA-MB-231 cells; 600 nM, dark, 30 h",12.8%
same,% G1,MDA-MB-231 cells; [11],9.5%
same,% G2,MDA-MB-231 cells; [11],54.2%
same,% S,MDA-MB-231 cells; [11],27.5%
same,mean % G2/M phase,MDA-MB-231 cells; [11],54.2%
same,mean % G2/M phase,"MDA-MB-231 cells; 800 nM, 390 nm + 515 nm (rescue), 48 h",24.7%
same,mean % G2/M phase,"MDA-MB-231 cells; 800 nM, 515 nm (500 ms every 30 s), 48 h",32.5%
same,% G1,MDA-MB-231 cells; [12],5.5%
same,% G2,MDA-MB-231 cells; [12],52.9%
same,% S,MDA-MB-231 cells; [12],27.6%
same,mean % G2/M phase,MDA-MB-231 cells; [12],52.9%
same,mean % G2/M phase,"MDA-MB-231 cells; 1 μM, 390 nm + 515 nm (rescue), 48 h",22.3%
same,mean % G2/M phase,"MDA-MB-231 cells; 1 μM, 515 nm (500 ms every 30 s), 48 h",28.4%
same,mean % G2/M phase,"MDA-MB-231 cells; 1.5 μM, 390 nm (1 s every 15 min), 30 h",40.6%
same,mean % G2/M phase,"MDA-MB-231 cells; 1.5 μM, dark, 30 h",13.1%
same,% G1,MDA-MB-231 cells; [13],4.8%
same,% G2,MDA-MB-231 cells; [13],60.1%
same,% S,MDA-MB-231 cells; [13],26.4%
same,mean % G2/M phase,"MDA-MB-231 cells; 5 μM, 390 nm (1 s every 15 min), 30 h",49.4%
same,% G1,MDA-MB-231 cells; [14],5.0%
same,% G2,MDA-MB-231 cells; [14],70.2%
same,% S,MDA-MB-231 cells; [14],23.9%
same,mean % G2/M phase,"MDA-MB-231 cells; 5 μM, dark, 30 h",13.8%
same,mean % cells PI+,"Jurkat cells; 50 nM, 390 nm (350 ms every 5 min)",1.3%
same,mean % cells PI+,"Jurkat cells; 50 nM, Dark",1.6%
same,mean % cells PI+,"Jurkat cells; 100 nM, 390 nm (350 ms every 5 min)",2.3%
same,mean % cells PI+,"Jurkat cells; 100 nM, dark",2.2%
same,mean % cells PI+,"Jurkat cells; 200 nM, 390 nm (350 ms every 5 min)",3.4%
same,mean % cells PI+,"Jurkat cells; 200 nM, dark",2.3%
same,mean % cells PI+,"Jurkat cells; 400 nM, 390 nm (350 ms every 5 min)",6.3%
same,mean % cells PI+,"Jurkat cells; 400 nM, dark",2.3%
same,mean % cells PI+,"Jurkat cells; 600 nM, 390 nm (350 ms every 5 min)",8.1%
same,mean % cells PI+,"Jurkat cells; 600 nM, dark",2.8%
